Results: patent US20260337125A1, “RADIOLABELED TYROSINE DERIVATIVE AND APPLICATION THEREOF” (Osaka University, priority 2022, published 2026)

Experiments:
[1] = tested on: human pancreatic cancer cell line (PANC1); experiment: Imaging of mice subcutaneously transplanted with human pancreatic cancer cell line PANC1; format: in vivo, human (PANC1) in Balb/c-nu/nu mice; details: 2 hours after administration, 0.5 MBq/0.2 mL per mouse, tail vein
Source text: Immunodeficient mice (Balb/c-nu/nu, 5-week-old, male) were habituated for 1 week and then subcutaneously transplanted with a human pancreatic cancer cell line (PANC1, 1×10^7 cells/mouse). After the transplantation, the mice were observed over time until tumor reached a size large enough for imaging (about 1000 mm^3). […] Two hours after administration, the mice were anesthetized by isoflurane inhalation, and planar images were taken using a γ camera (E-cam, Siemens).

[2] = Measurement of accumulated amounts of 211At-labeled compounds in PANC1 tumor-bearing mice; format: in vivo, human (PANC1) in Balb/c-nu/nu mice; details: tumor, iv, 0.1 MBq/animal, 0.1 MBq/0.2 mL per mouse, tail vein, read-out: tumor accumulation
Procedure: Radiation doses before and after the administration were measured, and a difference between them was defined as an injected dose (ID). Ten minutes and one hour after administration, the mice were anesthetized by isoflurane inhalation, the tumors were isolated by autopsy in chronological order, and their radiation doses and weights were measured using a gamma counter (2480 Wizard^2, PerkinElmer) and a semimicro scale (Shimadzu Corporation, readability 10 μg), respectively. For comparison between accumulated amounts, accumulated amounts per unit amount (% ID/g) were calculated.
In Table 1, the amounts of the ^211At-labeled compounds accumulated in tumors of the PANC1 tumor-bearing models (% ID/g) are shown. It should be noted that in Table 1, “OMe” is ^211At-AAMT-OMe, “OEt” is ^211At-AAMT-OEt, “OPr” is ^211At-AAMT-OPr, and “OH” is ^211At-AAMT.

[3] = tested on: CDDP-resistant A549 (A549 CDDP-r); details: 48 hours, 37 °C, Cell counting kit-8
Procedure: Two days before experiment, A549 and CDDP-resistant A549 (A549 CDDP-r) were each seeded in a 96-well plate at a concentration of 1×10^5 cells/mL. ^211At-AAMT-OMe or ^211At-AAMT adjusted to a predetermined concentration was added to A549 cells and CDDP-resistant A549 cells, respectively, and the cells were cultured (CO2 5%, 37 °C). After the cultivation for 48 hours, Cell counting kit-8 (DOJINDO LABORATORIES) was added. After the addition, the cells were cultured at 37 °C for 1 hour, and cell viability was measured using absorbance at 450 nm as an indicator.

[4] = background art; cited from earlier work

Compound: C[C@](N)(Cc1ccc(O)c([At])c1)C(=O)O [^211At-AAMT, astato(^211At)-α-methyl-L-tyrosine, reference compound]
- accumulation in tumor site (planar γ camera image) [1]: accumulated in the tumor sites
- tissue uptake at 10 min ([2]; 10 minutes after administration): 0.29 %ID/g
- tissue uptake at 1 h ([2]; 1 hour after administration): 2.49 %ID/g
- cytotoxicity [3]: has cytotoxicity against CDDP-resistant A549 (A549 CDDP-r)
- clearance [4]: fast clearance
